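Growth conditions: 96-well plates. Treatment: test compound, 48 hours, 5 concentrations. Analysis: linear interpolation between bracketing concentrations; unreached endpoints set to highest concentration. TGI is the concentration that stops growth completely.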
Columns and labels:
Assay in all cases: NCI anticancer screen, dose series, 48 h
BT-549 breast = tested on: BT-549 breast
CAKI-1 renal = tested on: CAKI-1 renal
EKVX NSCLC = tested on: EKVX NSCLC
HCT-116 colon = tested on: HCT-116 colon
HOP-62 NSCLC = tested on: HOP-62 NSCLC
K-562 leukemia = tested on: K-562 leukemia
MALME-3M melanoma = tested on: MALME-3M melanoma
MDA-N = tested on: MDA-N
NCI-H460 lung = tested on: NCI-H460 lung
SF-539 CNS = tested on: SF-539 CNS
SK-MEL-5 melanoma = tested on: SK-MEL-5 melanoma
SNB-75 CNS = tested on: SNB-75 CNS
TK-10 renal = tested on: TK-10 renal
UACC-257 melanoma = tested on: UACC-257 melanoma
RPMI-8226 leukemia = tested on: RPMI-8226 leukemia

| SMILES | TGI (BT-549 breast) [µM] | TGI (CAKI-1 renal) [µM] | TGI (EKVX NSCLC) [µM] | TGI (HCT-116 colon) [µM] | TGI (HOP-62 NSCLC) [µM] | TGI (K-562 leukemia) [µM] | TGI (MALME-3M melanoma) [µM] | TGI (MDA-N) [µM] | TGI (NCI-H460 lung) [µM] | TGI (SF-539 CNS) [µM] | TGI (SK-MEL-5 melanoma) [µM] | TGI (SNB-75 CNS) [µM] | TGI (TK-10 renal) [µM] | TGI (UACC-257 melanoma) [µM] | TGI (RPMI-8226 leukemia) [µM] |
| --- | --- | --- | --- | --- | --- | --- | --- | --- | --- | --- | --- | --- | --- | --- | --- |
| O=S1(=O)N=C(SCc2ccccc2)N(c2ccccc2)c2ccncc21 | 94.4 | > 100 | > 100 | > 100 | > 100 | > 100 | > 100 | 89.6 | > 100 | > 100 | > 100 | > 100 | > 100 | > 100 |  |
| CNC1=C(C)C(=O)C(=O)C([C@H](C)CCC=C(C)C)=C1O | > 100 | 56.7 | > 100 | > 100 | > 31.6 | > 100 | > 68.6 | > 100 | > 100 |  | 41.4 | > 94.4 | > 100 | > 100 | > 94.3 |
| CCCCCCCCCCCCCCCCCCNc1ccn(C2OC(COP(=O)(O)OCC3OC(n4cc(F)c(=O)[nH]c4=O)CC3O)C(O)C2O)c(=O)n1 (configuration not stated) | > 79.7 | > 100 | > 100 | > 100 | > 100 | > 100 | > 100 | > 100 | > 100 |  | > 100 | > 100 | > 55.5 | > 100 | > 53.3 |
| Cc1cc2ccccc2n2c1nc1ccccc12 | > 100 |  | > 100 | > 100 | > 100 | > 100 | > 100 | > 100 | > 100 | > 100 | > 100 | > 100 | > 100 | > 100 | > 100 |
| CSc1nc(C#N)c(/N=C\N(C)C)n1C | > 100 | > 100 | > 100 | > 100 | > 100 | > 100 | > 100 | > 100 | > 100 | > 100 | > 100 |  | > 100 | > 100 | > 100 |
| CC1=NN(C(=O)c2ccccc2O)C(=O)/C1=C/c1ccco1 | > 100 | 19.7 | 44.2 | > 100 |  | > 100 | 73.1 | > 100 | > 60.5 | 10.7 | 9.19 | 69.4 | > 100 | > 83.1 | > 92.6 |
| O=C1c2cc(Cl)ccc2-n2cnnc2C2CSCN12 (configuration not stated) | > 100 | 46 | > 100 | > 100 | > 100 | > 100 | > 100 | > 100 | > 100 |  | > 100 | > 100 | > 100 | > 100 | > 100 |
| CCOC(=O)P(=O)(O)c1ccc(N(C)Cc2ccccc2)cc1 | > 100 | > 100 | > 100 | > 100 | > 100 | > 100 | > 100 | > 100 |  | > 100 | > 100 | > 100 | > 100 | > 100 | > 100 |
